Reference: patent US20200108029A1, “METHODS AND SYSTEMS FOR TREATING OVERWEIGHT INDIVIDUALS” (LiveLight LLC, priority 2013, published 2020)
Read-outs that look alike come from different tables or passages of the source.

Experiments:
[1] = test system: patients in medical weight reduction; details: Truant, cited from earlier work
obesity patients = details: Munro, cited from earlier work
[2] = test system: overweight (7) and obese (16) patients; test: study of customized weekly dose patterns of moderate and low dose phentermine capsules; format: in vivo, human
Method: A study was performed including 23 overweight (7) and obese (16) patients whose average initial weight was 207 lb. Inclusion and exclusion criteria were similar to those of many published phentermine clinical trials. The patients were offered conventional dietary advice, provided meal replacements in the form of one to two commercial shakes (Usana Health Sciences, Salt Lake City, Utah), and were encouraged to exercise. Historical controls available from many published data about weight loss that involved dietary advice, meal replacement, and encouragement to exercise were used.
During the study, each patient was prescribed a customized dose pattern level of moderate capsules of phentermine and low dose capsules of phentermine that were provided on a biweekly basis in a 7-compartment blister pack where each blister contained a daily red capsule. The patient was instructed to take the appropriate daily capsule in the morning around breakfast time. The pack was labeled “each capsule contains up to 35 mg of phentermine.” In this example, each capsule contained 35 mg, 15 mg, 10 mg, 7.5 mg or 0 mg of phentermine in addition to inert excipients. The patients received two dose pattern weekly medications strips every two weeks.
In addition to the pills, patients were given a smartphone app or access to a browser-based reporting form where they could report their daily weight, drug compliance, hunger level, exercise level, and side effects experienced. The data was fed directly to a database, which was analyzed by the physician administering the trial and their assistant.
The algorithm for treatment included the following steps:
(1) Each patient was started on a weight loss dose pattern with a midlevel weekly phentermine dose pattern level 2 as shown in FIG. 2. […]
(2) The maximum tolerated weight loss dose pattern for the patient was determined by reviewing the patient's current dose level pattern and his or her electronically reported daily hunger level and side effects such as sleeplessness. […]

patients = test: pooled previously published phentermine clinical trials (FIG. 1A); format: in vivo, human; details: dropouts included as having lost no net weight
Excerpt: Studies using phentermine alone or phentermine mixed with a placebo have reported significant patient dropout rates in a typical 8-12 weeks phentermine clinical trial (Lucey et al “Chlorphentermine, A New ‘Appetite Suppressant,’ A Cross-Over Double-Blind Trial,” Ulster Med. J., 1962, pages 181-184 reports a 66% dropout rate, Kim et al., “Effects on Weight Reduction and Safety of Short-Term Phentermine Administration in Korean Obese People,” Yonsei Med J., 2006 Vol. 47, No. 5, pages 614-625 reports a 47% dropout rate, Truant reports a 66% dropout rate, Munro reports a 41% dropout rate, and Langlois et al., “A Double-Blind Clinical Evaluation of the Safety and Efficacy of Phentermine Hydrochloride (Fastin) in the Treatment of Exogenous Obesity,” Curr Ther Res Clin Exp., 1974, Vol. 16, No. 4, pages 289-296 reports a 41% dropout rate). For broad clinical adoption, the intent to treat weight loss, e.g., the average weight loss of all the patients that were enrolled in the study, is the key measure.
FIG. 1A is a table showing the results of various previously published clinical trials using phentermine.

## CC(C)(N)Cc1ccccc1 [phentermine, α-dimethyl-β-phenylethylamine]
[1]; phentermine for twelve weeks except placebo on weeks 4, 8, and 12
  weight lost: 16.6 lb
[1]; phentermine for twelve weeks
  weight lost: 18.8 lb
Obesity patients; 12-week treatment with weeks 4 through 8 on placebo versus phentermine for all 12 weeks
  average weight loss, intermittent versus continuous: lost as much weigh on average
Obesity patients; alternating monthly placebo/active trial, twelve weeks
  weight loss: 15 lbs
[2]; first 12 weeks, indicates tolerability of the regimen
  patients failing to complete the first 12 weeks in the program: None of the patients failed to complete the first 12 weeks
[2]; hunger and weight responsive patient-specific regimen, 12 weeks, intent to treat basis
  average twelve-week weight loss: 23 lb
[2]; once the initial dose was titrated
  reported side effects rate: Lower reported side effects rate
patients
  intent to treat weight loss: 9.0 lb
